As usually defined, the EC50 is the midpoint of the concentration-response curve.

Molecules are shown by their SMILES. Some results are limits rather than exact numbers.

This note sets out measurements from BindingDB's records for doi:10.1021/acs.jmedchem.9b02176 (Glaxosmithkline, 2020).

Assay [1] is described as follows: Inhibition of NS5A in HCV genotype 1a infected in […] cells assessed as reduction in viral replication incubated for 48 hrs by luciferase reporter gene assay. A general note: A reporter such as luciferase makes a cellular process visible.
A short description of assay [2]: Inhibition of NS5A in HCV genotype 1b infected in […] cells assessed as reduction in viral replication incubated for 48 hrs by luciferase reporter gene assay.
Assay [3] in a line: Inhibition of NS5A in HCV genotype 2a con infected in […] cells assessed as reduction in viral replication incubated for 48 hrs by luciferase reporter gene assay.
The nature of assay [4]: Inhibition of NS5A in patient-derived HCV genotype 2a infected in […] cells assessed as reduction in viral replication incubated for 48 hrs by luciferase reporter gene assay.
A short description of assay [5]: Inhibition of NS5A in patient-derived HCV genotype 3a infected in […] cells assessed as reduction in viral replication incubated for 48 hrs by luciferase reporter gene assay.
A short description of assay [6]: Inhibition of NS5A in HCV genotype 3a con infected in […] cells assessed as reduction in viral replication incubated for 48 hrs by luciferase reporter gene assay.

On to `COC(=O)N[C@H](C(=O)N1[C@H](c2ncc(-c3ccc4c(c3)C(F)(F)c3cc(-c5cnc([C@@H]6C[C@@H]7CCC[C@@H]7N6C(=O)[C@@H](NC(=O)OC)[C@@H](C)OC)[nH]5)ccc3-4)[nH]2)C[C@@H]2CCC[C@@H]21)[C@@H](C)OC`, for which the values for the half-maximal effective concentration (EC50) in assay [1] and in assay [2] were 0.029 nM and 0.017 nM, respectively.
Turning to `COC(=O)N[C@H](C(=O)N1[C@H](c2ncc(-c3ccc4c(c3)-c3ccc(-c5cnc([C@@H]6C[C@@H]7CCC[C@@H]7N6C(=O)[C@@H](NC(=O)OC)[C@@H](C)OC)[nH]5)cc3-4)[nH]2)C[C@@H]2CCC[C@@H]21)[C@@H](C)O`, the concentration for a half-maximal effect (EC50) in assay [1] came to 0.014 nM; in assay [2] it was 0.008 nM; in assay [3], 0.188 nM; in assay [4], 1.03 nM; in assay [5], 0.006 nM.
With `COC(=O)N[C@H](C(=O)N1[C@H](c2ncc(-c3ccc4c(c3)-c3ccc(-c5cnc([C@@H]6C[C@@H]7CCC[C@@H]7N6C(=O)[C@@H](NC(=O)OC)C(C)C)[nH]5)cc3-4)[nH]2)C[C@@H]2CCC[C@@H]21)C(C)C`, the concentration for a half-maximal effect (EC50) in assay [1] was 0.01 nM; in assay [3] it was 4.52 nM.
Regarding `COC(=O)N[C@@H](CO)C(=O)N1[C@H](c2ncc(-c3ccc4c(c3)-c3ccc(-c5cnc([C@@H]6C[C@@H]7CCC[C@@H]7N6C(=O)[C@H](CO)NC(=O)OC)[nH]5)cc3-4)[nH]2)C[C@@H]2CCC[C@@H]21`, the EC50 in assay [1] is 0.055 nM; in assay [2], 0.009 nM; in assay [3] it was 8.91 nM.
For `COC(=O)N[C@@H](CO)C(=O)N1[C@H](c2ncc(-c3ccc4c(c3)-c3ccc(-c5cnc([C@@H]6C[C@@H]7CCC[C@@H]7N6C(=O)[C@@H](NC(=O)OC)C(C)C)[nH]5)cc3-4)[nH]2)C[C@@H]2CCC[C@@H]21`, the EC50 was found to be 0.02 nM in assay [1] and 4.37 nM in assay [3].
As to `COC(=O)N[C@H](C(=O)N1[C@H](c2ncc(-c3ccc4c(c3)-c3ccc(-c5cnc([C@@H]6C[C@@H]7CCC[C@@H]7N6C(=O)[C@@H](NC(=O)OC)[C@@H](C)O)[nH]5)cc3-4)[nH]2)C[C@@H]2CCC[C@@H]21)C(C)C`, the EC50 in assay [1] was found to be 0.013 nM; in assay [2] it was 0.006 nM; in assay [3], 0.97 nM.
In the case of `COC(=O)N[C@H](C(=O)N1[C@H](c2ncc(-c3ccc4c(c3)-c3ccc(-c5cnc([C@@H]6C[C@@H]7CCC[C@@H]7N6C(=O)[C@@H](NC(=O)OC)[C@@H](C)O)[nH]5)cc3-4)[nH]2)C[C@@H]2CCC[C@@H]21)[C@@H](C)O`, the EC50 turned out to be 0.011 nM in assay [1]; 0.141 nM in assay [3]; 0.018 nM in assay [6]; 1.06 nM in assay [4]; 0.005 nM in assay [5].
Regarding `COC(=O)N[C@H](C(=O)N1[C@H](c2ncc(-c3ccc4c(c3)-c3ccc(-c5cnc([C@@H]6C[C@@H]7CCC[C@@H]7N6C(=O)[C@@H](NC(=O)OC)[C@@H](C)OC)[nH]5)cc3-4)[nH]2)C[C@@H]2CCC[C@@H]21)[C@@H](C)OC`, the EC50 amounted to 0.01 nM in assay [1]; 0.008 nM in assay [2]; 0.115 nM in assay [3]; 0.02 nM in assay [6]; 0.664 nM in assay [4]; 0.003 nM in assay [5].
For `COC(=O)N[C@H](C(=O)N1[C@H](c2ncc(-c3ccc4c(c3)CCc3cc(-c5cnc([C@@H]6C[C@@H]7CCC[C@@H]7N6C(=O)[C@@H](NC(=O)OC)[C@@H](C)OC)[nH]5)ccc3-4)[nH]2)C[C@@H]2CCC[C@@H]21)[C@@H](C)OC`, the 50% effective concentration (EC50) in assay [1] was 0.017 nM; in assay [2], 0.015 nM.
The corresponding values for `COC(=O)N[C@H](C(=O)N1[C@H](c2ncc(-c3ccc4c(c3)Cc3cc(-c5cnc([C@@H]6C[C@@H]7CCC[C@@H]7N6C(=O)[C@@H](NC(=O)OC)[C@@H](C)OC)[nH]5)ccc3-4)[nH]2)C[C@@H]2CCC[C@@H]21)[C@@H](C)OC` are 0.041 nM and 0.022 nM.
In the case of `COC(=O)N[C@H](C(=O)N1CCC[C@H]1c1ncc(-c2ccc3c(c2)-c2ccc(-c4cnc([C@@H]5CCCN5C(=O)[C@@H](c5ccccc5)N(C)C)[nH]4)cc2-3)[nH]1)C(C)C`, the concentration giving a half-maximal response (EC50) in assay [1] was 0.053 nM; in assay [2] it was 0.014 nM; in assay [3], 1.47 nM.
Consider `COC(=O)N[C@H](C(=O)N1[C@H](c2ncc(-c3ccc4c(c3)Cc3ccc(-c5cnc([C@@H]6C[C@@H]7CCC[C@@H]7N6C(=O)[C@@H](NC(=O)OC)[C@@H](C)OC)[nH]5)cc3C4)[nH]2)C[C@@H]2CCC[C@@H]21)[C@@H](C)OC`, for which the half-maximal effective concentration (EC50) amounted to 0.03 nM in assay [1] and 0.02 nM in assay [2].
Take `COC(=O)N[C@H](C(=O)N1[C@H](c2ncc(-c3ccc4c(c3)-c3ccc(-c5cnc([C@@H]6C[C@@H]7CCCC[C@@H]7N6C(=O)[C@@H](NC(=O)OC)C(C)C)[nH]5)cc3-4)[nH]2)C[C@@H]2CCCC[C@@H]21)C(C)C`: the results for the concentration for a half-maximal effect (EC50) in assay [1] and in assay [3] were 0.02 nM and 3.33 nM, respectively.
For the compound `COC(=O)N[C@H](C(=O)N1[C@H](c2ncc(-c3ccc4c(c3)S(=O)(=O)c3cc(-c5cnc([C@@H]6C[C@@H]7CCC[C@@H]7N6C(=O)[C@@H](NC(=O)OC)[C@@H](C)OC)[nH]5)ccc3-4)[nH]2)C[C@@H]2CCC[C@@H]21)[C@@H](C)OC`, the EC50 is 0.081 nM in assay [1] and 0.028 nM in assay [2].
For the compound `COC(=O)N[C@H](C(=O)N1[C@H](c2ncc(-c3ccc4c(c3)-c3ccc(-c5cnc([C@@H]6C[C@@H]7CCC[C@@H]7N6C(=O)[C@@H](NC(=O)OC)[C@H](C)O)[nH]5)cc3-4)[nH]2)C[C@@H]2CCC[C@@H]21)[C@H](C)O`, the concentration giving a half-maximal response (EC50) in assay [1] is 0.302 nM; in assay [2] it was 0.01 nM; in assay [3], 35.1 nM.
As to `COC(=O)N[C@H](C(=O)N1[C@H](c2ncc(-c3ccc4c(c3)Oc3ccc(-c5cnc([C@@H]6C[C@@H]7CCC[C@@H]7N6C(=O)[C@@H](NC(=O)OC)[C@@H](C)OC)[nH]5)cc3O4)[nH]2)C[C@@H]2CCC[C@@H]21)[C@@H](C)OC`, the values for the EC50 in assay [1] and in assay [2] were 0.012 nM and 0.007 nM, respectively.
On to `COC(=O)N[C@H](C(=O)N1CCC[C@H]1c1nc(-c2ccc(-c3ccc(-c4c[nH]c([C@@H]5CCCN5C(=O)[C@@H](NC(=O)OC)C(C)C)n4)cc3)cc2)c[nH]1)C(C)C` [BMS-790052], for which the EC50 in assay [1] amounted to 0.032 nM; in assay [2] it was 0.008 nM; in assay [3], 52.8 nM; in assay [6] it was 0.412 nM; in assay [4], 49.4 nM; in assay [5], 0.115 nM.
Consider `COC(=O)N[C@H](C(=O)N1[C@H](c2ncc(-c3ccc4c5ccc(-c6cnc([C@@H]7C[C@@H]8CCC[C@@H]8N7C(=O)[C@@H](NC(=O)OC)[C@@H](C)OC)[nH]6)cc5n(C)c4c3)[nH]2)C[C@@H]2CCC[C@@H]21)[C@@H](C)OC`, for which the EC50 in assay [1] was determined as 0.148 nM; in assay [2], 0.028 nM.
Take `COC(=O)N[C@H](C(=O)N1CCC[C@H]1c1ncc(-c2ccc3c(c2)-c2ccc(-c4cnc([C@@H]5C[C@@H]6CCCC[C@@H]6N5C(=O)[C@@H](NC(=O)OC)C(C)C)[nH]4)cc2-3)[nH]1)C(C)C`: the EC50 in assay [1] came out at 0.009 nM; in assay [3], 12.2 nM.
Regarding `COC(=O)N[C@H](C(=O)N1CCC[C@H]1c1ncc(-c2ccc3c(c2)-c2ccc(-c4cnc([C@@H]5CCCN5C(=O)[C@@H](NC(=O)OC)C(C)C)[nH]4)cc2-3)[nH]1)C(C)C`, the EC50 is 0.044 nM in assay [1]; 0.008 nM in assay [2]; 32 nM in assay [3]; < 0.025 nM in assay [6]; 48.8 nM in assay [4]; 0.018 nM in assay [5].
On to `CN(C)[C@@H](C(=O)N1CCC[C@H]1c1ncc(-c2ccc3c(c2)-c2ccc(-c4cnc([C@@H]5CCCN5C(=O)[C@@H](c5ccccc5)N(C)C)[nH]4)cc2-3)[nH]1)c1ccccc1`, for which the concentration giving a half-maximal response (EC50) was determined as 0.248 nM in assay [1], 0.081 nM in assay [2] and 0.327 nM in assay [3].
